The record followed here is US20150119352A1, “DINUCELOSIDE POLYPHOSPHATES FOR THE TREATMENT OF PAIN” (GlobalAcorn Ltd., priority 2012, published 2015).

Entries after “also recorded” stand apart in the source; their conditions may differ.

One experiment relates to rats. Nature of the experiment: Hargreaves plantar test under complete Freund adjuvant-induced thermal hyperalgesia. The format is in vivo, rat. Particulars: for antinociceptive effect on CFA-induced thermal hyperalgesia (paw withdrawal latency): injection (100 μL) into the inflamed hind paw. How it is done:
FIG. 8. […] A. Time-course of the effects of 1 and 20 μM (100 μL) of AppCH2ppA and AppNHppA on the paw withdrawal latency (PWL). B. Bar-graphs of the effects of AppCH2ppA and AppNHppA on the integral PWL.
FIG. 10. […] A. Time-course of the effects of i.t. AppCH2ppA on complete Freund adjuvant-induced thermal hyperalgesia (Hargreaves plantar test). B. Bar-graphs of the effects of i.t. AppCH2ppA on rat PWL.

Experiment [1] concerns rats with Partial Sciatic Nerve Ligation (PSNL). Nature of the experiment: Partial Sciatic Nerve Ligation (PSNL) thermal hyperalgesia test. The format is in vivo, rat. The following applies: 50 μM. On the procedure:
FIG. 9. […] Time-course of the effects of 50 μM (100 μL) of AppCH2ppA on PWL.
PSNL, with tight ligation of 33-50% of the sciatic nerve trunk, is a neuropathic pain model. We sub-cutaneously injected 50 μM of AppCH2ppA ([…]) on thermal hyperalgesia in rats with PSNL. […] Results are expressed as mean+/−S.E.M. In this model, the antinociceptive effect is 62%.

Experiment [2] addresses T1, rat homomeric P2X4 receptors (Rattus norvegicus, UniProt P51577).
T1 construct: expressed in transfected cells
T1 sequence (P51577 1-388): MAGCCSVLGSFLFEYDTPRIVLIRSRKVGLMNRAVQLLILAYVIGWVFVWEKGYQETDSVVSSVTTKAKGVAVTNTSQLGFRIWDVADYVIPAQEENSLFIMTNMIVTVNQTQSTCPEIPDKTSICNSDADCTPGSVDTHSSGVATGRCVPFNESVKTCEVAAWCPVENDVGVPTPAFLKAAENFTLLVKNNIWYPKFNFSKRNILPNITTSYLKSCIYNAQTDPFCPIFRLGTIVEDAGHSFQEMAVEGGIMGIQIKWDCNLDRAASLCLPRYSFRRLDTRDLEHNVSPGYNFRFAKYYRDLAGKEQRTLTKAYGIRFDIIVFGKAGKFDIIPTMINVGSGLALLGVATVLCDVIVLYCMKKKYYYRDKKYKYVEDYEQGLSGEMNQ
Nature of the experiment: Whole-cell patch clamp, rat homomeric P2X4 receptors. Particulars: 1 μM; ATP. The format is cell-based. How it is done:
FIG. 4. […] A. Example traces of responses induced by 10 μM ATP applied for 2 s every 2 min to HEK cells expressing rat homomeric P2X2 receptors in the presence and absence of 1 μM AppNHppA. B. Comparison of currents induced by the full agonist of P2X2 receptors, ATP, in the presence of 1 μM AppNHppA (right) and absence (left). C. The time course of the current in the presence and absence of 1 μM AppNHppA. D. Comparison of currents induced by the full agonist of rat homomeric P2X4 and P2X7 receptors, ATP, in the presence of 1 μM AppNHppA (right) and absence (left). Experiments were performed as in FIG. 2.
(§1) Trigeminal, nodose, DRG neurons or HEK cells were recorded in the whole-cell configuration while being continuously superfused (at 2 mL/min) with control solution containing (in mM): 152 NaCl, 5 KCl, 1 MgCl2, 2 CaCl2, 10 glucose, and 10 HEPES; pH was adjusted to 7.4 with NaOH and osmolarity was adjusted to 320 mOsM with glucose. […] Responses to selective P2X3 receptor agonist α,β-methylene-ATP (α,β-meATP; resistant to ectoATPase hydrolysis, Sigma-Aldrich) were measured using an EPC-9 amplifier and HEKA Patch Master software (HEKA Electronik, Germany). Cells were voltage-clamped at −70 mV. In most cells, series resistance was compensated by 80%. […]

In experiment [3] the test system is native P2X3 receptors, nodose ganglia (NG) neurons. Nature of the experiment: α,β-meATP-induced currents in cultured nodose ganglia neurons. Format: cell-based, rat. The following applies: 1 μM. How it is done: Rat trigeminal (TG), nodose (NG) or dorsal root ganglion (DRG) neurons in culture were prepared as described previously (Sokolova et al., 2001; Simonetti et al., 2006). Neurons were plated on poly-L-lysine (0.2 mg/mL)-coated Petri dishes and cultured for 1 to 2 days under an atmosphere containing 5% CO2. Cells were used within 2 days of plating when they lacked processes. HEK293T cells were prepared as reported previously (Fabbretti et al., 2004; Sokolova et al., 2004) and transfected with rat full-length P2X3 cDNA subcloned into pIRES2-EGFP (Clontech, Mountain View, Calif., USA).
as §1
The peak amplitudes of the responses were measured using HEKA Patch Master software. […]

In the case of `Nc1ncnc2c1ncn2[C@@H]1O[C@H](COP(=O)(O)OP(=O)(O)CP(=O)(O)OP(=O)(O)OC[C@H]2O[C@@H](n3cnc4c(N)ncnc43)C(O)C2O)C(O)C1O` (stereo in doubt) [AppCH2ppA], the “antinociceptive effect on CFA-induced thermal hyperalgesia (paw withdrawal latency)” value in the experiment with rats is “antinociceptive effect was observed”. For the same molecule, the antinociceptive effect was found to be 27% in the experiment on rats (intra-thecal administration, 20 μM); 53% in the experiment on rats (intraplantar administration); 62% in experiment [1] (sub-cutaneous, thermal hyperalgesia, PWL). Further, the “antinociceptive effect of intrathecal compared with intraplantar injection” value in the experiment with rats (intrathecal 20 μM, 100 μL) is “weaker delayed antinociceptive effect; also recorded: less pronounced analgesia”. Further, in the experiment on rats (rat, in vivo), the “effect of local peripheral intraplantar injection relative to intrathecal injection” value is given as “two-fold higher effect”. Also, the “effect on thermal hyperalgesia (PWL)” value in experiment [1] (100 μL, subcutaneous) was “reduced thermal hyperalgesia”.

With `Nc1ncnc2c1ncn2[C@@H]1O[C@H](COP(=O)(O)OP(=O)(O)NP(=O)(O)OP(=O)(O)OC[C@H]2O[C@@H](n3cnc4c(N)ncnc43)C(O)C2O)C(O)C1O` (stereo in doubt) [AppNHppA], the “effect on P2X4 receptor-mediated currents” value in experiment [2] is on record as “not observed to produce any effects; also recorded: non-inhibitory effect”. The “inhibition of sustained residual component” value in experiment [3] stood at 2±4%. Moreover, the “inhibition (suppression) of the peak current” value in experiment [3] (10 μM α,β-meATP) was found to be 16.8±11.8%. For the same molecule, the “antinociceptive effect on CFA-induced thermal hyperalgesia (paw withdrawal latency)” value in the experiment with rats was “antinociceptive effect was observed”.
